Experiments:
[1] = Titration with acetic or lactic acid: pH and physical stability (Table D); type: physicochemical
[2] = cited from earlier work; for pH compatibility: check mark; for Solubility: in words
Tyrosinase = biological target: T1, Tyrosinase (Homo sapiens, UniProt P14679); conditions: tyrosinase inhibitor; cited from earlier work
T1 sequence (P14679 19-529): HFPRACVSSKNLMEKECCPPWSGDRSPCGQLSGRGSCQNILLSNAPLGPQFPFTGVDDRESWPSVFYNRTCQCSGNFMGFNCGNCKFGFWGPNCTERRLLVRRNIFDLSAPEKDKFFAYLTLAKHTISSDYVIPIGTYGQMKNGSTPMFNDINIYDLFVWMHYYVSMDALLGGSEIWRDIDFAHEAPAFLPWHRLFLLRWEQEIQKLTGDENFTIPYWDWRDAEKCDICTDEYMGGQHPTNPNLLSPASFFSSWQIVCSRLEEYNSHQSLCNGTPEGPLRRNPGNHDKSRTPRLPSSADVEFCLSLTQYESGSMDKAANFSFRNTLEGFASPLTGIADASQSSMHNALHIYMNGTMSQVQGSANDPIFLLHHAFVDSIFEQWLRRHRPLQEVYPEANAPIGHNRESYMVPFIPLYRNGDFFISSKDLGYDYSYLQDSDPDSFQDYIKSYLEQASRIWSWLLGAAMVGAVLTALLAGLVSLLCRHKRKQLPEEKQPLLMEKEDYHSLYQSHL

[3] = Histological score of subcutaneous toxicity after 24 h continuous SC LD/CD; type: in vivo, Pigs; conditions: 0.2% added to LD/CD 5.4/1.5% + 1% ascorbate
[4] = Colour formation of levodopa/arginine solutions in vitro (FIG. 1A); type: physicochemical
Method: FIG. 1 depicts the effect of carbidopa on the stability of levodopa In Vitro and Ex Vivo: A. 6% weight levodopa and arginine solution with various concentrations (2, 1.5, 1, 0.5%) of carbidopa or no carbidopa were tested for physical stability in vitro. […] B. 7% weight percent levodopa and arginine solution, with or without 2% carbidopa by weight, continuously administered in to the subcutaneous tissue of a 5×5 cm fresh, full-thickness pig skin.
In the absence of air (with N2 in the head space) 0.5% CD was sufficient to inhibit this color formation.

[5] = Chemical stability of levodopa formulations with carbidopa (Tables F, G); type: physicochemical; conditions: Table F
Method: The effect of carbidopa on levodopa formulations was investigated. Levodopa (LD) formulations were prepared with 0, 0.5, 1, 1.5 & 2% by weight carbidopa (CD) and a constant concentration of arginine.
In an additional experiment, LD formulations were prepared with 0, 0.5, 1 & 2% CD and respective concentrations of arginine.

[6] = Stability of carbidopa formulations with levodopa (Table H); type: physicochemical
From the text: The effect of levodopa on the stability of carbidopa was investigated. Table H indicates results.

O=C1O[C@H]([C@@H](O)CO)C(O)=C1O [Ascorbic acid]
reduction of pH as compared to Na-ascorbate [1]: 0.1-0.15 units

O=C([O-])CN(CCN(CC(=O)[O-])CC(=O)O)CC(=O)O.[Na+].[Na+] [EDTA disodium]
pH compatibility [2]: √

C[C@H](CS)C(=O)N1CCC[C@H]1C(=O)O [Captopril]
Min required concentration (Tyrosinase): 0.04 mg/mL
Solubility [2]: Soluble
protection from local toxicity compared to 1% ascorbate alone [3]: did not have a supplementary effect

N[C@@H](CS)C(=O)O [L-Cysteine]
Solubility [2]: Soluble

O=C([O-])CN(CCN(CC(=O)[O-])CC(=O)[O-])CC(=O)[O-].[Ca+2].[Na+].[Na+] [EDTA calcium disodium]
pH compatibility [2]: √
protection from local toxicity compared to 1% ascorbate alone [3]: did not have a supplementary effect

Cn1cc[nH]c1=S [Methimazole]
Solubility [2]: Soluble

C[C@@](Cc1ccc(O)c(O)c1)(NN)C(=O)O [carbidopa]
dark yellow color formation ([4]; 6% levodopa/arginine solution, in the presence of air, dose related): prevented dark yellow color formation
carbidopa concentration sufficient to inhibit color formation ([4]; absence of air (N2 in the head space)): 0.5%
effect on the chemical stability of levodopa [5]: does not have a significant effect
sensitivity of CD to oxidation and degradation [6]: more stable in the presence of LD

O=C(O)[C@@H](S)[C@@H](S)C(=O)O [DMSA (succimer)]
Solubility [2]: Soluble

CC(C)(S)[C@@H](N)C(=O)O [DPA (D-penicillamine), D-penicillamine]
Solubility [2]: Soluble

Source: patent publication US9040578B2, “Continuous administration of L-dopa, dopa decarboxylase inhibitors, catechol-O-methyl transferase inhibitors and compositions for same” (Neuroderm, Ltd., priority 2010, dated 2015)
